From patent US9649332B2, “Poly (β-hydroxy short-medium chain fatty acid)” (EARTHUS, INC., priority 2003, dated 2017)

System: Cell line HT-29 derived from colon tumor
Assay: Growth inhibition against colon tumor cell line (MTT method)
Format: cell-based
Settings: 72 hours, control 0.337 ± 0.055
Procedure: Cell line HT-29 derived from colon tumor was inoculated into McCoy's SA medium supplemented with 10% fetal calf serum comprising penicillin 50 U/ml, streptomycin 50 μg/ml and HEPES 10 mM on 96-well cell culture plate (7,500 cells/well). The cells were pre-incubated in an atmosphere of 95% air and 5% carbon dioxide at 37° C. for 24 hours. […] The plate was incubated further 72 hours. The cell number in the each well was determined by the MTT method based on the difference of the optical density.

SMILES	cell number by MTT method (optical density) (0.1 mM)	cell number by MTT method (optical density) (0.5 mM)	cell number by MTT method (optical density) (1 mM)	cell number by MTT method (optical density) (2 mM)
C[C@H](CC(=O)O)OC(=O)C[C@@H](C)O [R-dimer, dimer of R(−)-β-hydroxybutyric acid]	0.288 ± 0.019	0.251 ± 0.029	0.248 ± 0.029	0.237 ± 0.019
C[C@H](O)CC(=O)O [S-β-hydroxy-butyric acid, S(+)-β-hydroxybutyric acid]	0.257 ± 0.035	0.255 ± 0.013	0.281 ± 0.017	0.293 ± 0.022
CCCC(=O)O [butyric acid, reference compound]	0.234 ± 0.012	0.243 ± 0.009	0.250 ± 0.010	0.200 ± 0.009
C[C@@H](O)CC(=O)O [R-β-hydroxy-butyric acid, R(−)-β-hydroxy-butyric acid]	0.271 ± 0.028	0.264 ± 0.019	0.272 ± 0.015	0.284 ± 0.023
